Assay results reported in the supplement of paper PMC10307832.

Experiments:
Experiment in all cases: relative viability (nuclei count vs DMSO), 5 days (fraction); higher = more cells survive
Sorafenib + Foretinib = compound: CNC(=O)c1cc(Oc2ccc(NC(=O)Nc3ccc(Cl)c(C(F)(F)F)c3)cc2)ccn1 [Sorafenib] + COc1cc2c(Oc3ccc(NC(=O)C4(C(=O)Nc5ccc(F)cc5)CC4)cc3F)ccnc2cc1OCCCN1CCOCC1 [Foretinib] (partner 0.25 µM)
Outline: (§1)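 Dosing by pin tool came one day after lung cancer cell lines were seeded in 1536-well plates, using either one drug or a fixed anchor-drug dose plus five library-drug doses (not always all listed) in √10 steps. After 5 days, nuclei were counted on 4× images. Relative viability is treated-well nuclei count divided by vehicle-well nuclei count, and values are medians of duplicate plates.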

Sorafenib + Palbociclib = compound: CNC(=O)c1cc(Oc2ccc(NC(=O)Nc3ccc(Cl)c(C(F)(F)F)c3)cc2)ccn1 [Sorafenib] + CC(=O)c1c(C)c2cnc(Nc3ccc(N4CCNCC4)cn3)nc2n(C2CCCC2)c1=O [Palbociclib] (partner 0.5 µM)
Outline: as §1

Sorafenib + Lapatinib = compound: CNC(=O)c1cc(Oc2ccc(NC(=O)Nc3ccc(Cl)c(C(F)(F)F)c3)cc2)ccn1 [Sorafenib] + CS(=O)(=O)CCNCc1ccc(-c2ccc3ncnc(Nc4ccc(OCc5cccc(F)c5)c(Cl)c4)c3c2)o1 [Lapatinib] (partner 2 µM)
Outline: as §1

Sorafenib + Olaparib = compound: CNC(=O)c1cc(Oc2ccc(NC(=O)Nc3ccc(Cl)c(C(F)(F)F)c3)cc2)ccn1 [Sorafenib] + O=C(c1cc(Cc2n[nH]c(=O)c3ccccc23)ccc1F)N1CCN(C(=O)C2CC2)CC1 [Olaparib] (partner 8 µM)
Outline: as §1

Sorafenib = compound: CNC(=O)c1cc(Oc2ccc(NC(=O)Nc3ccc(Cl)c(C(F)(F)F)c3)cc2)ccn1 [Sorafenib]
Outline: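 Lung cancer cell lines received five library-drug doses (not always all listed) spaced by √10, pinned on vehicle-anchored 1536-well plates after an overnight stay at 37 °C. Five days later, with no medium change, nuclei were Hoechst-stained, imaged at 4× and counted with MetaXpress. Viability is treated-well nuclei relative to vehicle-well nuclei, as a median across plates. Passing plates had control CV below 25% and at least one doubling.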

Row | Cell Line | relative viability (Sorafenib + Foretinib; first compound 0.08 µM) | relative viability (Sorafenib + Foretinib; first compound 0.253 µM) | relative viability (Sorafenib + Foretinib; first compound 2.53 µM) | relative viability (Sorafenib + Foretinib; first compound 8 µM) | relative viability (Sorafenib + Palbociclib; first compound 0.08 µM) | relative viability (Sorafenib + Palbociclib; first compound 2.53 µM) | relative viability (Sorafenib + Lapatinib; first compound 0.08 µM) | relative viability (Sorafenib + Lapatinib; first compound 0.253 µM) | relative viability (Sorafenib + Lapatinib; first compound 2.53 µM) | relative viability (Sorafenib + Lapatinib; first compound 8 µM) | relative viability (Sorafenib + Olaparib; first compound 0.08 µM) | relative viability (Sorafenib + Olaparib; first compound 0.253 µM) | relative viability (Sorafenib + Olaparib; first compound 2.53 µM) | relative viability (Sorafenib + Olaparib; first compound 8 µM) | relative viability (Sorafenib; 0.08 µM) | relative viability (Sorafenib; 2.53 µM) | relative viability (Sorafenib; 8 µM) | relative viability (Sorafenib + Palbociclib; first compound 0.253 µM) | relative viability (Sorafenib + Palbociclib; first compound 8 µM) | relative viability (Sorafenib; 0.253 µM)
1 | NCI-H1755 | 0.926 | 0.863 | 0.921 | 0.729 | 0.482 | 0.461 | 1.03 | 0.999 | 0.994 | 0.869 | 0.912 | 0.797 | 0.856 | 0.748 | 1.04 | 0.973 | 0.936 |  |  | 
2 | NCI-H23 | 1.03 | 0.977 | 0.833 | 0.871 | 0.522 | 0.514 | 1.23 | 1.07 | 1.02 | 0.908 | 0.31 | 0.249 | 0.343 | 0.266 | 1 | 0.974 | 0.704 | 0.503 | 0.389 | 0.875
3 | SK-MES-1 | 1.07 | 0.896 | 0.903 | 0.818 | 0.301 | 0.292 | 0.468 | 0.465 | 0.56 | 0.515 | 0.664 | 0.551 | 0.648 | 0.258 | 1.04 | 0.997 | 0.752 | 0.292 | 0.289 | 0.936
4 | UMC-11 | 0.968 | 1.02 | 0.941 | 0.58 | 0.284 | 0.334 | 1.08 | 0.874 | 1.07 | 0.468 | 0.39 | 0.375 | 0.38 | 0.15 | 1.03 | 0.917 | 0.648 | 0.355 | 0.188 | 0.907
5 | LC-2-ad | 0.923 | 0.989 | 0.985 | 0.744 | 0.54 | 0.447 | 1.05 | 0.878 | 0.587 | 0.314 | 0.738 | 0.768 | 0.751 | 0.655 | 1.03 | 0.939 | 0.762 | 0.456 | 0.393 | 0.834
6 | NCI-H2342 | 1 | 1 | 0.914 | 0.568 | 0.53 | 0.556 |  |  |  |  | 0.433 | 0.487 | 0.351 | 0.388 |  |  | 0.656 | 0.523 | 0.533 | 0.728
7 | LCLC-103H | 0.793 | 0.794 | 0.813 | 0.882 | 0.415 | 0.479 |  |  |  |  | 0.796 | 0.734 | 0.831 | 0.832 | 0.975 | 1.13 | 1.03 | 0.461 | 0.52 | 0.946
